According to article PMC8197855, “Peptide/β-Peptoid Hybrids with Activity against Vancomycin-Resistant Enterococci: Influence of Hydrophobicity and Structural Features on Antibacterial and Hemolytic Properties” (International Journal of Molecular Sciences, 2021):
Values after ≈ are worked out from the molar mass of the structure shown. Values joined by “and” are separate entries in the source; they are usually repeats but may differ in a detail not shown here. Equal values may be shown once.

Assays:
[1] = system: E. faecium ATCC 19434; experiment: Broth checkerboard assay with conventional antibiotics; type: cell-based, Enterococcus faecium; conditions: antibiotic alone (-); BHI broth
Protocol: (§1) The strain culture preparation and final volume were the same as in the MIC assay. […] The plates were incubated for 24 h at 37 °C without shaking. […] All experiments were performed in two biological replicates.
(§2) To evaluate the effect of the combinations, the fractional inhibitory concentration index (FICI) was calculated for each combination according to:ΣFIC = FICA + FICB = (CA/MICA) + (CB/MICB)
(§3) The drug interaction was scored as follows: synergy—FICI ≤ 0.5; no interaction—FICI > 0.5–4; antagonism—FICI > 4 [40].

[2] = system: E. faecalis ATCC 29212; experiment: as above; type: cell-based, Enterococcus faecalis; conditions: antibiotic alone (-); BHI broth
Protocol: as §1, §2, §3

[3] = system: E. faecium ATCC 19434; experiment: microbe, parasite or virus in culture; type: cell-based, Enterococcus faecium; conditions: ATCC 19434, 24 h
Protocol: (§4) Overnight cultures of the enterococcal isolates were diluted in physiological saline (0.9% NaCl) to reach a turbidity of 0.5 McFarland units (Sensititre® nephelometer and the Sensititre® McFarland Standard). Bacterial suspensions were adjusted to 5 × 10^5 CFU/mL in MHB II or BHI broth containing two-fold dilutions of peptidomimetics or conventional antibiotics in a final volume of 100 µL. The plates were incubated for 24 h at 37 °C without shaking. […] All experiments were performed in three biological replicates. […]

[4] = system: E. faecium isolates; type: cell-based, Enterococcus faecium; conditions: 24 h
Protocol: (§5) Overnight cultures of the enterococcal isolates were diluted in physiological saline (0.9% NaCl) to reach a turbidity of 0.5 McFarland units (Sensititre® nephelometer and the Sensititre® McFarland Standard). Bacterial suspensions were adjusted to 5 × 10^5 CFU/mL in MHB II or BHI broth containing two-fold dilutions of peptidomimetics or conventional antibiotics in a final volume of 100 µL. The plates were incubated for 24 h at 37 °C without shaking. […] All experiments were performed in three biological replicates.

[5] = Hydrophobicity by analytical RP-HPLC (% MeCN at peak elution); type: physicochemical
Protocol: Water was filtered by using an Evoqua LaboStar PRO TWF Ultra Pure Water System prior to use in high-performance liquid chromatography (HPLC). The retention time for each peptidomimetic was determined by analytical HPLC using a Phenomenex Luna C18(2) HST column (100 mm × 3 mm; particle size: 2.5 μm; pore size: 100 Å) on a Shimadzu Prominence and Shimadzu Nexera system using an aqueous MeCN gradient with 0.1% trifluoroacetic acid (TFA) added (eluent A: 5:95 MeCN–H2O + 0.1% TFA; eluent B: 95:5 MeCN–H2O + 0.1% TFA); a flow rate of 0.5 mL/min was used. For the elution of peptidomimetics, a linear gradient of 0% to 60% B over 10 min was used with UV detection at λ = 220 nm. The percentage MeCN at peak elution was calculated from the retention time (tR) by using the following formula:%MeCN = [0.95 × 0.6 × tR/10 + 0.05 × (1 − 0.6 × tR/10)] × 100%

[6] = system: E. faecalis ATCC 29212; experiment: microbe, parasite or virus in culture; type: cell-based, Enterococcus faecalis; conditions: ATCC 29212, 24 h
Protocol: as §4

[7] = system: HepG2 cell line ATCC HB-8065; experiment: Effect on HepG2 cell viability (MTT assay); type: cell-based, human; conditions: 48 h
Protocol: The effect of peptidomimetics on mammalian cell viability was determined on the HepG2 cell line ATCC HB-8065. In brief, HepG2 cells were seeded into flat-bottom 96-well plates at a concentration of 5000 cells per well. The cells were incubated for 24 h in a humidified incubator (5% CO2, 37 °C). Subsequently, the medium was removed, and the cells were incubated for 48 h in a humidified incubator (5% CO2, 37 °C) with peptidomimetics in serial dilutions. An MTT assay was then performed; in brief, after incubation with the test compounds, the culture medium was removed and fresh medium with 0.2 mg/mL MTT was then added into each well. After incubation (3 h, 37 °C, 5% CO2), the medium with MTT was removed, and 200 μL dimethyl sulfoxide was added at once to each sample. The absorbance of MTT was measured using the spectrophotometer TECAN Infinite M1000 at 540 nm. The relative viability was calculated by using the formula:ODtreated cells × 100/ODcontrol cells
The IC50 values were calculated using the program Graph Pad Prism 5.0. For all compounds, the test range was 10–1280 μg/mL.

[8] = Hemolytic activity; type: cell-based, human; conditions: human, human red blood cells (washed, 1% suspension), 37 °C, 1% red blood cell suspension
Protocol: A suspension of hRBCs (Single-donor human red blood cells—washed; catalogue No. IPLA-W3 from Innovative researchTM) was washed three times with PBS buffer and centrifuged for 5 min at 2500 rpm. A two-fold serial dilution of compounds in PBS buffer was prepared. Plates (conical-bottomed 96-well plates) with 3 replicate wells per dilution, containing 1% red blood cell suspension, were prepared and dosed with the test compound to achieve a final concentration of 400 μg/mL in a total volume of 100 μL. The plates were incubated (37 °C) for 60 min with mild agitation, and then the cells were pelleted by centrifugation at 1500 rpm for 5 min. Then, the supernatants (50 μL) were transferred to a fresh 96-well plate, and then the concentration of hemoglobin was detected by measuring the OD at 405 nm. The OD of cells incubated with 1% SDS achieved 100% hemolysis, while the OD of cells incubated with PBS buffer achieved 0% hemolysis. The concentration tested was 400 μg/mL (only average values are stated in Table 3). The percent hemolysis was calculated by using the formula:Hemolysis(%) = 100 × [(Asample − Aneg.control)/(Apos. control − Aneg.control)]

[9] = system: E. faecium 3978; experiment: microbe, parasite or virus in culture; type: cell-based, Enterococcus faecium; conditions: 3978, 24 h
Protocol: as §5

[10] = system: E. faecium 1798; experiment: microbe, parasite or virus in culture; type: cell-based, Enterococcus faecium; conditions: 1798, 24 h
Protocol: as §5

[11] = system: E. faecium D344R; experiment: microbe, parasite or virus in culture; type: cell-based, Enterococcus faecium; conditions: E. faecium D344R, human clinical isolate; 24 h
Protocol: as §5

[12] = system: E. faecium 2961; experiment: microbe, parasite or virus in culture; type: cell-based, Enterococcus faecium; conditions: 2961, 24 h
Protocol: as §5

[13] = system: E. faecalis 39002; experiment: microbe, parasite or virus in culture; type: cell-based, Enterococcus faecalis; conditions: 39002, 24 h
Protocol: as §5

[14] = system: E. faecalis 38262; experiment: microbe, parasite or virus in culture; type: cell-based, Enterococcus faecalis
Protocol: as §5

[15] = system: E. faecalis isolates; type: cell-based, Enterococcus faecalis; conditions: 24 h
Protocol: as §5

Compound	MIC of antibiotic [1]	MIC of antibiotic [2]	Minimum inhibitory concentration [3]	MIC (range or typical value) against E. faecium [4]	Hydrophobicity, Luna C18(2) HST (0–60% B; 10 min), retention converted into % MeCN [5]	Minimum inhibitory concentration [6]	HepG2 IC50 [7]	hemolysis at 60 min, 400 µg/mL [8]	Minimum inhibitory concentration [9]	Minimum inhibitory concentration [10]	Minimum inhibitory concentration [11]	Minimum inhibitory concentration [12]	Minimum inhibitory concentration [13]	Minimum inhibitory concentration ([14]; 38262, 24 h)	MIC (range) against E. faecalis [15]	Minimum inhibitory concentration ([14]; E. faecalis 38262, veterinary isolate, 24 h)
CC[C@H]1OC(=O)[C@H](C)[C@@H](O[C@H]2C[C@@](C)(OC)[C@@H](O)[C@H](C)O2)[C@H](C)[C@@H](O[C@@H]2O[C@H](C)C[C@H](N(C)C)[C@H]2O)[C@](C)(O)C[C@@H](C)CN(C)[C@H](C)[C@@H](O)[C@]1(C)O [Azithromycin, azithromycin]	4 to 8 µg/mL	1 to 2 µg/mL														
C[C@@H](c1ccccc1)N(CCC(N)=O)C(=O)[C@H](CCCCN)NC(=O)CCN(C(=O)[C@H](CCCCNC(=N)N)NC(=O)CCN(C(=O)[C@H](CCCCN)NC(=O)CCN(C(=O)[C@H](CCCCNC(=N)N)NC(=O)CCN(C(=O)[C@H](CCCCN)NC(=O)CCN(C(=O)[C@H](CCCCNC(=N)N)NC(=O)CNCCCNCCCCNCCCN)[C@@H](C)c1ccccc1)[C@@H](C)c1ccccc1)[C@@H](C)c1ccccc1)[C@@H](C)c1ccccc1)[C@@H](C)c1ccccc1 [Compound 3, SpermineAc-[hArg-βNspe-Lys-βNspe]3-NH2]			16 to 32 µg/mL	4 to 8 µg/mL	40 % MeCN and 40.2 % MeCN	>32 µg/mL	41 µg/mL	0.6%	8 µg/mL (≈ 3.63 µM)	4 to 8 µg/mL	4 to 8 µg/mL	8 µg/mL (≈ 3.63 µM)				
C[C@@H](c1ccccc1)N(CCC(N)=O)C(=O)[C@H](CCCCN)NC(=O)CCN(C(=O)[C@H](CCCCNC(=N)N)NC(=O)CCN(C(=O)[C@H](CCCCN)NC(=O)CCN(C(=O)[C@H](CCCCNC(=N)N)NC(=O)CCN(C(=O)[C@H](CCCCN)NC(=O)CCN(C(=O)[C@H](CCCCNC(=N)N)NC(=O)CCN(C(=O)[C@H](CCCCN)NC(=O)CCN(C(=O)[C@@H](N)CCCCNC(=N)N)[C@@H](C)c1ccccc1)[C@@H](C)c1ccccc1)[C@@H](C)c1ccccc1)[C@@H](C)c1ccccc1)[C@@H](C)c1ccccc1)[C@@H](C)c1ccccc1)[C@@H](C)c1ccccc1 [Compound 4, H-[hArg-βNspe-Lys-βNspe]4-NH2]			8 µg/mL (≈ 3.06 µM)	4 to 8 µg/mL	43.6 % MeCN	>32 µg/mL	42 µg/mL	2.6%	4 to 8 µg/mL	4 µg/mL (≈ 1.53 µM)	4 µg/mL (≈ 1.53 µM)	4 µg/mL (≈ 1.53 µM)	32 µg/mL (≈ 12.2 µM)	16 µg/mL (≈ 6.12 µM)		
C[C@@H](c1ccccc1)N(CCC(=O)N[C@@H](CCCCN)C(=O)N(CCC(=O)N[C@@H](CCCCNC(=N)N)C(=O)N(CCC(=O)N[C@@H](CCCCN)C(=O)N(CCC(=O)N[C@@H](CCCCNC(=N)N)C(=O)N(CCC(=O)N[C@@H](CCCCN)C(=O)N(CCC(N)=O)[C@@H](C)c1ccccc1)[C@@H](C)c1ccccc1)[C@@H](C)c1ccccc1)[C@@H](C)c1ccccc1)[C@@H](C)c1ccccc1)C(=O)[C@H](CCCCNC(=N)N)NC(=O)C=Cc1ccccc1 [Compound 6, Cinn-[hArg-βNspe-Lys-βNspe]3-NH2]			8 µg/mL (≈ 3.82 µM)	4 to 8 µg/mL	45.9 % MeCN	16 µg/mL (≈ 7.64 µM)	42 µg/mL	15.7%	4 µg/mL (≈ 1.91 µM)	4 µg/mL (≈ 1.91 µM)	4 µg/mL (≈ 1.91 µM)	4 µg/mL (≈ 1.91 µM)	16 µg/mL (≈ 7.64 µM)	16 µg/mL (≈ 7.64 µM)	16 µg/mL (≈ 7.64 µM)	
NCCCC[C@H](NC(=O)CCN(Cc1ccc(F)cc1)C(=O)[C@H](CCCCN)NC(=O)CCN(Cc1ccc(F)cc1)C(=O)[C@H](CCCCN)NC(=O)CCN(Cc1ccc(F)cc1)C(=O)[C@H](CCCCN)NC(=O)CCN(Cc1ccc(F)cc1)C(=O)[C@H](CCCCN)NC(=O)CCN(Cc1ccc(F)cc1)C(=O)[C@H](CCCCN)NC(=O)CCN(Cc1ccc(F)cc1)C(=O)[C@H](CCCCN)NC(=O)CCN(Cc1ccc(F)cc1)C(=O)[C@@H](N)CCCCN)C(=O)N(CCC(N)=O)Cc1ccc(F)cc1 [Compound 7, H-[Lys-βNPhe(F)]8-NH2]			8 to 16 µg/mL		41.3 % MeCN	8 to 16 µg/mL	50 µg/mL	1.5%	4 to 8 µg/mL	2 to 4 µg/mL	4 to 8 µg/mL	2 to 4 µg/mL	8 to 16 µg/mL			> 32 µg/mL
CNC(C)C1CCC(N)C(OC2C(N)CC(N)C(OC3OCC(C)(O)C(NC)C3O)C2O)O1 (stereo not drawn) [Gentamicin, gentamicin]	64 µg/mL	16 µg/mL														
CC(=O)NC[C@H]1CN(c2ccc(N3CCOCC3)c(F)c2)C(=O)O1 [Linezolid, linezolid]	2 µg/mL	2 µg/mL														
CO[C@H]1/C=C/O[C@@]2(C)Oc3c(C)c(O)c4c(O)c(c(/C=N/N5CCN(C)CC5)c(O)c4c3C2=O)NC(=O)/C(C)=C\C=C\[C@H](C)[C@H](O)[C@@H](C)[C@@H](O)[C@@H](C)[C@H](OC(C)=O)[C@@H]1C [Rifampicin, rifampicin]	8 µg/mL	1 µg/mL														
